Measurements: patent publication US20010049374A1 (priority 1997, published 2001)

Biological target: T1, urokinase enzyme Abbokinase (Homo sapiens, UniProt P00749)
T1 construct: purchased Abbott Laboratories, Abbott Park, Ill
Assay: Determination of urokinase inhibition (Abbokinase, chromogenic substrate S-2444)
Format: biochemical
Conditions: Inhibitory potency against urokinase; substrate S-2444 at 200 μM, enzyme 2-3 nM, pH 7.4, 405 nm; read-out: IC50
Method: Several vials were reconstituted as directed on the vial, aliquoted and stored frozen. The enzyme was further diluted in assay buffer and 10 μl was used in the assay. Enzyme concentration in the assay was 2-3 nM. […] The Spectromax® calculated the reaction rates which were used to calculate percent inhibition of the compounds of this invention versus the reaction rate of the enzyme in the absence of any inhibitor. The Ki's of the inhibitors were calculated from the percent inhibition and previously established Km.
Work on “(E)-4-[2-(6-Aminoiminomethyl-2-naphthalenyl)ethenyl]benzoic acid [Example 84]” yielded an IC50 of 10000 nM.
Molecule “(E)-6-[2-[4-(hydroxymethyl)phenyl]ethenyl]-2-naphthalenecarboximidamide [Example 108]” has an IC50 of 996 nM.
Molecule “(S)-2-Amino-N-[1-[(6-aminoiminomethyl-2-naphthalenyl)carbonyl]cyclohexyl]propionamide [Example 37]” has an IC50 of 2340 nM.
In the case of “Ethyl [6-(aminoiminomethyl)-2-naphthalenyl]carbamate [Example 78]”, the IC50 is reported as 3570 nM.
“Methyl 3-[[7-(aminoiminomethyl)-1-naphthalenyl]amino]-3-oxopropionate [Example 17]” gave an IC50 of 4260 nM.
In the case of “Methyl [3-methoxy-6-(aminoiminomethyl)-4-naphthalenyl]carbamate [Example 90]”, the IC50 is reported as 70 nM.
“Methyl [7-(aminoiminomethyl)-1-naphthalenyl)carbamate [Example 16]” showed an IC50 of 30 nM.
“Methyl [(7-aminoiminomethyl-2-methoxy-1-naphthalenyl)oxy]acetate [Example 6]” showed an IC50 of 2300 nM.
“N-(6-Aminoiminomethyl-2-naphthalenyl)-N′-benzylurea [Example 69]” showed an IC50 of 1380 nM.
Molecule “N-(6-Aminoiminomethyl-2-naphthalenyl)-N′-isopropylurea [Example 71]” has an IC50 of 2390 nM.
For “N-(6-Aminoiminomethyl-2-naphthalenyl)-N′-methylurea [Example 70]”, the IC50 was 2570 nM.
“N-(6-aminoiminomethyl-2-naphthalenyl)-N′-benzyloxyurea [Example 75]” gave an IC50 of 2090 nM.
“N-(6-aminoiminomethyl-2-naphthalenyl)-N′-cyclohexylurea [Example 74]” showed an IC50 of 1610 nM.
Molecule “N-(6-aminoiminomethyl-2-naphthalenyl)-N′-phenylurea [Example 40]” has an IC50 of 310 nM.
In the case of “N-[3-(methyl)phenyl]-6-aminoiminomethyl-2-naphthalenecarboxamide [Example 48]”, the IC50 is reported as 1300 nM.
Molecule “N-[4-(Aminomethyl)phenyl]-6-aminoiminomethyl-2-naphthalenecarboxamide [Example 8]” has an IC50 of 100 nM.
“N-[4-(aminocarbonyl)phenyl]-6-(aminoiminomethyl)-2-naphthalenecarboxamide [Example 184]” showed an IC50 of 375 nM.
“N-[6-(Aminoiminomethyl)-2-naphthalenyl]-4-(aminomethyl)benzamide [Example 77]” gave an IC50 of 230 nM.
Molecule “N-[6-(aminoiminomethyl)-2-naphthalenyl)benzamide [Example 136]” has an IC50 of 1670 nM.
With “N-[6-(aminoiminomethyl)-2-naphthalenyl]-N′-(4-aminophenyl)urea [Example 138]” the IC50 was 460 nM.
“N-[7-(aminoiminomethyl )-1-naphthalenyl]urea [Example 161]” gave an IC50 of 1590 nM.
Work on “N-[7-(aminoiminomethyl)-1-naphthalenyl)-2-methoxyacetamide [Example 160]” yielded an IC50 of 2620 nM.
With “N-[7-(aminoiminomethyl)-1-naphthalenyl)acetamide [Example 15]” the IC50 was 2500 nM.
Work on “N-[7-(aminoiminomethyl)-1-naphthalenyl)propanamide [Example 159]” yielded an IC50 of 2230 nM.
“N-[7-(aminoiminomethyl)-1-naphthalenyl]-1,3-benzodioxole-5-carboxamide [Example 19]” showed an IC50 of 2210 nM.
In the case of “N-[7-(aminoiminomethyl)-1-naphthalenyl]-2-(phenylmethoxy)acetamide [Example 18]”, the IC50 is reported as 420 nM.
Work on “N-[7-(aminoiminomethyl)-1-naphthalenyl]-2-hydroxyacetamide [Example 162]” yielded an IC50 of 1330 nM.
Molecule “N-[7-(aminoiminomethyl)-1-naphthalenyl]-N′-methylurea [Example 157]” has an IC50 of 3120 nM.
For “N-[7-(aminoiminomethyl)-1-naphthalenyl]benzenemethanesulfonamide [Example 20]”, the IC50 was 803 nM.
Molecule “N-phenyl-6-aminoiminomethyl-2-naphthalenecarboxamide [Example 55]” has an IC50 of 900 nM.
“[(7-aminoiminomethyl-2-methoxy-1-naphthalenyl)oxy]acetic acid [Example 7]” gave an IC50 of 3500 nM.
“ethyl [7-(aminoiminomethyl)-1-naphthalenyl)carbamate [Example 158]” gave an IC50 of 90 nM.
With “methyl 2-[4-[[[6-(aminoiminomethyl)-2-naphthalenyl]carbonyl]amino]phenoxy]acetate [Example 95]” the IC50 was 1730 nM.
Work on “methyl 2-[[6-(aminoiminomethyl)-2-naphthalenyl]oxy]acetate [Example 185]” yielded an IC50 of 3190 nM.
Molecule “methyl 4-[[[7-(aminoiminomethyl)-1-(2-pyrimidinylamino)-2-naphthalenyl]oxy]methyl]benzoate [Example 133]” has an IC50 of 44 nM.
For “methyl [7-(aminoiminomethyl)-2-methoxy-I-naphthalenyl)carbamate [Example 99]”, the IC50 was 3020 nM.
Molecule “propyl [7-(aminoiminomethyl)-1-naphthalenyl]carbamate [Example 156]” has an IC50 of 180 nM.

Tested on: tumor metastasis
Assay: not given
Conditions: in vivo; Kellen et al. 1988; cited from earlier work
In the case of N=C(N)NC(=O)c1nc(Cl)c(N)nc1N [Amiloride], the “inhibition of tumor metastasis” value is given as “inhibit tumor metastasis in vivo”.

Tested on: angiogenesis/capillary network formation
Assay: not given
Conditions: in vitro; Alliegro and Glaser 1991; cited from earlier work
In the case of N=C(N)NC(=O)c1nc(Cl)c(N)nc1N [Amiloride], the “inhibition of angiogenesis/capillary network formation” value is listed as “angiogenesis/capillary network formation in vitro”.
